Laboratory results from patent USRE48335E1, “Polymyxin derivatives as antimicrobial compounds” (priority 2014, dated 2020).
In brackets after ≈: the same amount, converted by molar mass. Positions of bridges follow the written chain, without caps; N, C: chain ends. Non-standard residues stand in square brackets, D forms with d. Residues, ends and D or L forms follow the SMILES beside them. *: point of attachment. X36 = O=C(c1cc(C(F)(F)F)cc(C(F)(F)F)c1)*; Benzoyl(4-Me) = Cc1ccc(C(=O)*)cc1; X30 = Cc1cc(C)c(C(=O)*)c(C)c1; X32 = Cc1ccc(C(=O)*)c(Cl)c1; X24 = Cc1ccc(C(=O)*)c(C)c1; X29 = Cc1cc(C)cc(C(=O)*)c1; X26 = Cc1ccc(CC(=O)*)cc1C; X25 = Cc1cccc(C(=O)*)c1C; X42 = Cc1ccc(C(=O)*)cc1F; Dab = NCC[C@H](N)C(=O)O; X33 = Cc1cccc(C(=O)*)c1; Abu = CC[C@H](N)C(=O)O; Dap = NC[C@H](N)C(=O)O

What was measured:
Pseudomonas aeruginosa = test system: Pseudomonas aeruginosa
Procedure, shortened: (§1)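 Broth microdilution, CAMHB, per CLSI M100-S18; compounds as TFA salts; polymyxin B (sulphate) control; read-out MIC.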

Acinetobacter baumannii = test system: Acinetobacter baumannii
Procedure, shortened: as §1

Enterobacter cloacae = test system: Enterobacter cloacae
Procedure, shortened: as §1

Structure (SMILES) | Minimum inhibitory concentration, Pa ATCC 27853 (Pseudomonas aeruginosa) [µg/mL] | Minimum inhibitory concentration, Pa FADDI-PA022 (Pseudomonas aeruginosa) [µg/mL] | Minimum inhibitory concentration, Pa FADDI-PA025 (Pseudomonas aeruginosa) [µg/mL] | Minimum inhibitory concentration, Ab A ATCC 17978 (Acinetobacter baumannii) [µg/mL] | Minimum inhibitory concentration, Ab ATCC 19606 (Acinetobacter baumannii) [µg/mL] | Minimum inhibitory concentration, Ab FADDI-AB034 (Acinetobacter baumannii) [µg/mL] | Minimum inhibitory concentration, Ec FADDI-EC001 (Enterobacter cloacae) [µg/mL] | Minimum inhibitory concentration, Ec FADDI-EC003 (Enterobacter cloacae) [µg/mL] | Minimum inhibitory concentration, Ec FADDI-EC006 (Enterobacter cloacae) [µg/mL]
CC[C@@H]1NC(=O)[C@@H](CC(C)C)NC(=O)[C@H](CCN)NC(=O)[C@@H](NC(=O)[C@H](CN)NC(=O)[C@@H](NC(=O)[C@H](CCN)NC(=O)c2cccc(C)c2)[C@@H](C)O)CCNC(=O)[C@H]([C@@H](C)O)NC(=O)[C@H](CCN)NC(=O)[C@H](CCN)NC1=O [Compound 87] (X33-[Dab]T[Dap][Dab][Dab][dL][Abu][Dab][Dab]T; lactam 4-C) | 0.5 (≈ 0.452 µM) | 1 (≈ 0.905 µM) | 2 (≈ 1.81 µM) | 1 (≈ 0.905 µM) | 2 (≈ 1.81 µM) | 2 (≈ 1.81 µM) | 2 (≈ 1.81 µM) | 1 (≈ 0.905 µM) | 2 (≈ 1.81 µM)
CC[C@@H]1NC(=O)[C@@H](CC(C)C)NC(=O)[C@H](CCN)NC(=O)[C@@H](NC(=O)[C@H](CN)NC(=O)[C@@H](NC(=O)[C@H](CCN)NC(=O)c2ccc(C)cc2C)[C@@H](C)O)CCNC(=O)[C@H]([C@@H](C)O)NC(=O)[C@H](CCN)NC(=O)[C@H](CCN)NC1=O [Compound 89] (X24-[Dab]T[Dap][Dab][Dab][dL][Abu][Dab][Dab]T; lactam 4-C) | 0.5 (≈ 0.447 µM) | 1 (≈ 0.893 µM) | 4 (≈ 3.57 µM) | 1 (≈ 0.893 µM) | 4 (≈ 3.57 µM) | 1 (≈ 0.893 µM) | <0.125 | <0.125 | 2 (≈ 1.79 µM)
CC[C@@H]1NC(=O)[C@@H](CC(C)C)NC(=O)[C@H](CCN)NC(=O)[C@@H](NC(=O)[C@H](CN)NC(=O)[C@@H](NC(=O)[C@H](CCN)NC(=O)c2cccc(C)c2C)[C@@H](C)O)CCNC(=O)[C@H]([C@@H](C)O)NC(=O)[C@H](CCN)NC(=O)[C@H](CCN)NC1=O [Compound 91] (X25-[Dab]T[Dap][Dab][Dab][dL][Abu][Dab][Dab]T; lactam 4-C) | 0.5 (≈ 0.447 µM) | 2 (≈ 1.79 µM) | 4 (≈ 3.57 µM) | 1 (≈ 0.893 µM) | 4 (≈ 3.57 µM) | 2 (≈ 1.79 µM) | <0.125 | <0.125 | 0.5 (≈ 0.447 µM)
CC[C@@H]1NC(=O)[C@@H](CC(C)C)NC(=O)[C@H](CCN)NC(=O)[C@@H](NC(=O)[C@H](CN)NC(=O)[C@@H](NC(=O)[C@H](CCN)NC(=O)c2c(C)cc(C)cc2C)[C@@H](C)O)CCNC(=O)[C@H]([C@@H](C)O)NC(=O)[C@H](CCN)NC(=O)[C@H](CCN)NC1=O [Compound 92] (X30-[Dab]T[Dap][Dab][Dab][dL][Abu][Dab][Dab]T; lactam 4-C) | 0.5 (≈ 0.441 µM) | 0.5 (≈ 0.441 µM) | 4 (≈ 3.53 µM) | 0.5 (≈ 0.441 µM) | 4 (≈ 3.53 µM) | 4 (≈ 3.53 µM) | <0.125 | 0.25 (≈ 0.221 µM) | 2 (≈ 1.76 µM)
CC[C@@H]1NC(=O)[C@@H](CC(C)C)NC(=O)[C@H](CCN)NC(=O)[C@@H](NC(=O)[C@H](CN)NC(=O)[C@@H](NC(=O)[C@H](CCN)NC(=O)c2cc(C)cc(C)c2)[C@@H](C)O)CCNC(=O)[C@H]([C@@H](C)O)NC(=O)[C@H](CCN)NC(=O)[C@H](CCN)NC1=O [Compound 93] (X29-[Dab]T[Dap][Dab][Dab][dL][Abu][Dab][Dab]T; lactam 4-C) | 2 (≈ 1.79 µM) | 4 (≈ 3.57 µM) | 2 (≈ 1.79 µM) | 0.5 (≈ 0.447 µM) | 1 (≈ 0.893 µM) | 0.5 (≈ 0.447 µM) | 0.25 (≈ 0.223 µM) | 1 (≈ 0.893 µM) | 4 (≈ 3.57 µM)
CC[C@@H]1NC(=O)[C@@H](CC(C)C)NC(=O)[C@H](CCN)NC(=O)[C@@H](NC(=O)[C@H](CN)NC(=O)[C@@H](NC(=O)[C@H](CCN)NC(=O)c2cc(C(F)(F)F)cc(C(F)(F)F)c2)[C@@H](C)O)CCNC(=O)[C@H]([C@@H](C)O)NC(=O)[C@H](CCN)NC(=O)[C@H](CCN)NC1=O [Compound 97] (X36-[Dab]T[Dap][Dab][Dab][dL][Abu][Dab][Dab]T; lactam 4-C) | 0.5 (≈ 0.407 µM) | 0.5 (≈ 0.407 µM) | 1 (≈ 0.815 µM) | <0.125 | 0.5 (≈ 0.407 µM) | 0.25 (≈ 0.204 µM) | 0.5 (≈ 0.407 µM) | 0.25 (≈ 0.204 µM) | 0.5 (≈ 0.407 µM)
CC[C@@H]1NC(=O)[C@@H](CC(C)C)NC(=O)[C@H](CCN)NC(=O)[C@@H](NC(=O)[C@H](CN)NC(=O)[C@@H](NC(=O)[C@H](CCN)NC(=O)c2ccc(C)cc2)[C@@H](C)O)CCNC(=O)[C@H]([C@@H](C)O)NC(=O)[C@H](CCN)NC(=O)[C@H](CCN)NC1=O [Compound 98] ({Benzoyl(4-Me)}-[Dab]T[Dap][Dab][Dab][dL][Abu][Dab][Dab]T; lactam 4-C) | 0.5 (≈ 0.452 µM) | 0.5 (≈ 0.452 µM) | 2 (≈ 1.81 µM) | 2 (≈ 1.81 µM) | 2 (≈ 1.81 µM) | 2 (≈ 1.81 µM) | 1 (≈ 0.905 µM) | 0.25 (≈ 0.226 µM) | 2 (≈ 1.81 µM)
CC[C@@H]1NC(=O)[C@@H](CC(C)C)NC(=O)[C@H](CCN)NC(=O)[C@@H](NC(=O)[C@H](CN)NC(=O)[C@@H](NC(=O)[C@H](CCN)NC(=O)c2ccc(C)cc2Cl)[C@@H](C)O)CCNC(=O)[C@H]([C@@H](C)O)NC(=O)[C@H](CCN)NC(=O)[C@H](CCN)NC1=O [Compound 101] (X32-[Dab]T[Dap][Dab][Dab][dL][Abu][Dab][Dab]T; lactam 4-C) | 0.5 (≈ 0.439 µM) | 2 (≈ 1.75 µM) | 2 (≈ 1.75 µM) | 0.5 (≈ 0.439 µM) | 0.5 (≈ 0.439 µM) | 1 (≈ 0.877 µM) | <0.125 | <0.125 | 0.25 (≈ 0.219 µM)
CC[C@@H]1NC(=O)[C@@H](CC(C)C)NC(=O)[C@H](CCN)NC(=O)[C@@H](NC(=O)[C@H](CN)NC(=O)[C@@H](NC(=O)[C@H](CCN)NC(=O)c2ccc(C)c(F)c2)[C@@H](C)O)CCNC(=O)[C@H]([C@@H](C)O)NC(=O)[C@H](CCN)NC(=O)[C@H](CCN)NC1=O [Compound 102] (X42-[Dab]T[Dap][Dab][Dab][dL][Abu][Dab][Dab]T; lactam 4-C) | 0.5 (≈ 0.445 µM) | 0.5 (≈ 0.445 µM) | 2 (≈ 1.78 µM) | 1 (≈ 0.89 µM) | 2 (≈ 1.78 µM) | 1 (≈ 0.89 µM) | 1 (≈ 0.89 µM) | 0.5 (≈ 0.445 µM) | 4 (≈ 3.56 µM)
CC[C@@H]1NC(=O)[C@@H](CC(C)C)NC(=O)[C@H](CCN)NC(=O)[C@@H](NC(=O)[C@H](CN)NC(=O)[C@@H](NC(=O)[C@H](CCN)NC(=O)Cc2ccc(C)c(C)c2)[C@@H](C)O)CCNC(=O)[C@H]([C@@H](C)O)NC(=O)[C@H](CCN)NC(=O)[C@H](CCN)NC1=O [Compound 103] (X26-[Dab]T[Dap][Dab][Dab][dL][Abu][Dab][Dab]T; lactam 4-C) | 0.5 (≈ 0.441 µM) | 0.5 (≈ 0.441 µM) | 2 (≈ 1.76 µM) | 0.5 (≈ 0.441 µM) | 0.5 (≈ 0.441 µM) | 0.5 (≈ 0.441 µM) | <0.125 | <0.125 | 0.5 (≈ 0.441 µM)
